Reference: patent US11911467B2, “Composition comprising PIC for treatment of cancer” (Yisheng Biopharma (Singapore) PTE LTD, priority 2016, dated 2024)
Where “and” joins values, the source holds several entries; their conditions need not be identical. Equal entries are not always repeated.

Assays:
S180 tumor = test system: S180 tumor; parameters: species or system female Balb/c mice; conditions: mouse, in vivo
[1] = test system: Ehrlich Ascites Cancer (EAC) tumor; parameters: species or system female Kunming mice; conditions: mouse, in vivo
[2] = test system: LL/2 murine Lewis lung tumor
4T1 murine breast tumor = 4T1 murine breast tumor model (Example 3); assay type: in vivo, female Balb/c mice
Description: 1.1 Female Balb/c mice (6 weeks old, body weight 17.2±0.1 g) were obtained from Shanghai SIPPR-BK Laboratory Animal Co. Ltd.
The murine breast cancer cancer cell line 4T1 was obtained from American Type Culture Collection (ATCC), and maintained by HD Biosciences. Cells were maintained in DMEM with 10% fetal bovine serum in a atmosphere of 5% CO2 at 37° C. Passaging ratio was between 1:5 and 1:8, at the frequency of 3 to 4 times per week.
4T1 murine breast tumor model was established in female Balb/c mice by subcutaneous inoculation with 1×10^6 cells per animal. The rate of tumor formation was 100%. Three days post cell inoculation, the cell inoculated mice were randomly sorted into treatment groups by weight. Animals in each group were administered according to Table 2.
There were 4 groups: Vehicle group, Docetaxel group, YS-ON-001 low dose group, and YS-ON-001 high dose group.
2. The Studies were Terminated when the Average Tumor Volume in Vehicle Group Reached 2500 mm^3
3. At the end of study, the tumor mass was removed and photographed. The tumor weight was recorded. The thymus and spleen was removed and weighed. And then, the organ index was calculated.
III. Observational Indices: Same as in Example 2 Section III.
Data were reported as Mean±SEM. Comparison between groups was analysed using ANOVA.

[3] = Cisplatin 5 mg/kg i.v. QW, total 3 dosing, end of study
[4] = Docetaxel 10 mg/kg i.v. QW, total 3 dosing, end of study

O=P1(N(CCCl)CCCl)NCCCO1 (centres unmarked) [CTX, Cyclophosphamide]
Tumor growth (tumor volume) compared with saline control group (S180 tumor): significantly inhibited the tumor growth | Tumor weight compared with saline control group (S180 tumor): significantly decreased tumor weight | Day on which all mice were dead [1]: 30 days | Day on which death was first observed [1]: 27 days | Median duration (to death) [1]: 29 days and 34.5 days

N.N.[Cl][Pt][Cl] [Cisplatin]
Number of lung metastases compared with vehicle group (B16F10 metastasis tumor; day 15, Cisplatin 5 mg/kg i.v. Q4D, YS-ON-001 200 μg/0.2 mL/mice/dose i.m./s.c. BID, p<0.01): significantly decreased | Spleen weight and spleen index compared with vehicle group (B16F10 metastasis tumor; mouse, in vivo): not affected | Thymus weight and thymus index compared with vehicle group (B16F10 metastasis tumor; mouse, in vivo): significantly decreased | Relative tumor proliferation rate T/C [2, 3]: 53.04% | Tumor inhibition rate (tumor weight) [2, 3]: 29.46% | Spleen index compared to vehicle group ([2]; mouse, in vivo): trend of reducing which is not significant | Spleen weight compared to vehicle group ([2]; mouse, in vivo): significantly reduced | Thymus weight and thymus index compared to vehicle group ([2]; mouse, in vivo): significantly reduced

CC(=O)O[C@@]12CO[C@@H]1C[C@H](O)[C@@]1(C)C(=O)[C@H](O)C3=C(C)[C@@H](OC(=O)[C@H](O)[C@@H](NC(=O)OC(C)(C)C)c4ccccc4)C[C@@](O)([C@@H](OC(=O)c4ccccc4)[C@H]21)C3(C)C [Docetaxel]
Relative tumor proliferation rate T/C (4T1 murine breast tumor; [4]): 50.12% | Tumor inhibition rate (tumor weight) (4T1 murine breast tumor; [4]): 35.55% | Body weight compared to vehicle group (4T1 murine breast tumor; Docetaxel 10 mg/kg, Day 8 and Day 13 to end of study, p<0.01): significantly affected | Body weight change compared to vehicle group (4T1 murine breast tumor; Docetaxel: Day 4 to end, two YS-ON-001 groups: Day 4 and Day 15 to end): significantly reduced | Spleen weight compared to vehicle group (4T1 murine breast tumor; end of study, doses of Table 2): significantly reduced | Thymus weight and thymus index compared to vehicle group (4T1 murine breast tumor; end of study, doses of Table 2): significantly reduced | Spleen index compared to vehicle group (4T1 murine breast tumor; end of study, doses of Table 2, YS-ON-001 p<0.01 low dose, p<0.05 high dose): significantly reduced
